Our source for the IC50 values is patent publication US9193717B2, “Mineralocorticoid receptor antagonists” (Merck Sharp & Dohme Corp., priority 2011, dated 2015).

In the test the target is T1, full-length human Mineralocorticoid Receptor (MR) (Homo sapiens, UniProt P08235).
T1 construct: full-length human Mineralocorticoid Receptor (MR); host or cells: PathHunter CHO-K1 cells
T1 sequence (P08235 1-984): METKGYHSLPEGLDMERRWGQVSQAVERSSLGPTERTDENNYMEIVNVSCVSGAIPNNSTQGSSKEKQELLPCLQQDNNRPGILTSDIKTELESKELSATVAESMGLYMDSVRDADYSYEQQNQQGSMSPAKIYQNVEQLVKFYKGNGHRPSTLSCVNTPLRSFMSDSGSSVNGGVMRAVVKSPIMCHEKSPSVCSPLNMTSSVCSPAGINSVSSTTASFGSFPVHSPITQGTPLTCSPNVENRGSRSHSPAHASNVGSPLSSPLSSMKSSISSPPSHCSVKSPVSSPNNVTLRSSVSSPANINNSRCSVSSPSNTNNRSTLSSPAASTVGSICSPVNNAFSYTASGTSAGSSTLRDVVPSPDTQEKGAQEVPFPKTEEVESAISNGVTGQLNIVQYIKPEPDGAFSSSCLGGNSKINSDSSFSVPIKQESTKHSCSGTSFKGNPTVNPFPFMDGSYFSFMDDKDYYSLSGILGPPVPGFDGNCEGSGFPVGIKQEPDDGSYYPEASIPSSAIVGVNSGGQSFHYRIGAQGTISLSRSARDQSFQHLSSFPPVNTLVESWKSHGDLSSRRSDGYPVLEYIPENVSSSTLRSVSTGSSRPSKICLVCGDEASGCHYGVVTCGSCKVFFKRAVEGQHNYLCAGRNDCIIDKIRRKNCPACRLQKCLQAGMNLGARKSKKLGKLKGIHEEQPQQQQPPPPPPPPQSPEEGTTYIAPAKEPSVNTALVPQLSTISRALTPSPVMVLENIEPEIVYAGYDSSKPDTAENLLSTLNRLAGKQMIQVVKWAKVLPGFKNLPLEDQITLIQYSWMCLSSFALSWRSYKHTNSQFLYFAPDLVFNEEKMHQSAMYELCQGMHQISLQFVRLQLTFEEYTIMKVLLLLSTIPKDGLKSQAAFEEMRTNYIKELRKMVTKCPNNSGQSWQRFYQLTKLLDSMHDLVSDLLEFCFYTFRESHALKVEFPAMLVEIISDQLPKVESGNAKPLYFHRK
Briefly: human MR NH Pro assay (PathHunter Protein:Protein interaction assay, MR antagonism). Format: cell-based. As to conditions: PathHunter CHO-K1 cells that overexpress human MR; aldosterone (0.3 nM), 6 hours at 37° C.; antagonist mode; read-out: IC50 rating. The procedure: The activity of the compounds of the present invention regarding mineralocorticoid receptor antagonism was evaluated using the following assay.
Assessment of Mr Potency in HMR NH Pro Assay
The human MR NH Pro assay is a commercially available PathHunter™ Protein:Protein interaction assay (DiscoveRx; http://www.discoverx.com/nhrs/prod-nhrs.php) that measures the ability of compounds to antagonize full-length human Mineralocorticoid Receptor (MR) binding to a coactivator peptide. PathHunter™ CHO—K1 cells that overexpress human MR (Cat #93-0456C2, Lot No: 09B0913) were cultured in growth media (F12K w/Glutamine and phenol red (Gibco 11765-047) supplemented with 10% HI FBS (Gibco 16000); 0.25 mg/ml Hygromycin in PBS (Invitrogen 10687-010, 50 mg/ml); 100 I.U./mL and 100 μg/mL Pen/Strep (Gibco 15140-122); 0.6 mg/mL Geneticin).
Compounds were assessed for MR antagonist activity by incubating the cells with a titrating dose of compound in F12K w/Glutamine and phenol red culture media (Invitrogen 11765-047) supplemented with 1% Charcoal/Dextran Treated FBS (Hyclone #SH30068.01) and aldosterone (0.3 nM) for 6 hours at 37° C. […] Growth Media: • F12K w/Glutamine and phenol red (Gibco 11765-047) • 10% HI FBS (Gibco 16000) • 0.25 mg/ml Hygromycin in PBS (Invitrogen 10687-010, 50 mg/ml) • 100 I.U./mL and 100 μg/mL Pen/Strep (Gibco 15140-122) • 0.6 mg/mL Geneticin (Gibco 10131, 50 mg/ml) • 2. Assay Media: • F12K w/Glutamine and phenol red (Invitrogen 11765-047) • 1% Charcoal/Dextran Treated FBS (Hyclone #SH30068.01) • 3. 3× PathHunter Detection Reagents (Cat#93-0001) (need ˜6 ml/plate). […] Control Agonist:Aldosterone:Sigma cat# A9477 • Prepare stock solution-10 μM in DMSO kept at −20° C. • for assay, dilute in assay media to 1.8 or 6 nM (6× of final concentration=about 0.3 nM to about 1.0 nM) • 5. Cell line: PathHunter CHO—K1 MR cells Cat #93-0456C2, Lot No: 09B0913, from operation liquid nitrogen stock. • 6. Control Antagonist:Spironolactone:Sigma #S-3378 and Eplerenone Sigma #107724-20-9 (10 mM stock concentration also prepared in DMSO and stored at −20° C.). • Methods: • Assay Set up and Calculations: • 1. Cells were grown in F12+FBS+Hygromycin+pen/strep+Genetin • 2. Cells were collected with 0.05% trypsin and the cell suspension was spun and resuspended in a volume of F12+1.5% CD-FBS and counted. • 3. The cells were resuspended to 4×10^5 cells/mL. • 4. Cells were (25 μL/well) added to the wells of a 384 well plate. • 5. The plate was then incubated at 37° C. over night in a humidified incubator with 5% CO2. • 6. Test compounds were titrated starting at 4.4 mM, 10-point titration in 1:3 dilution. • 7. Aldosterone was diluted in assay media to 1.8 nM or 6 nM from 10 μM stock (final concentration to be about 0.3 nM to about 1.0 nM). • Protocol for 384 Well Plate Format: 6 Hr Treatment: • 1. Plated 10K exponentially growing cells/well (25 μL) resuspended in assay media to each well using the Multidrop (Thermo Electron) (use white wall, clear bottom assay plates (Costar #3570) and incubate overnight at 37° C., 5% CO2. • 2. 0.25 μL 120× test compound (final DMSO concentration should be <1%) was added to each well n=2, 10 point titrations starting at 36.7 μM final concentration. • 3. 5 μL 6× agonist (final aldosterone concentration should be about 0.3 nM to about 1.0 nM) was added to all wells using the PlateMate Plus.
(ThermoFisher) (except those wells in columns 23 and 24) • 4. 5 μL of assay media was added to all wells in column 23 and 24. • 5. Plates were incubated 6 hrs at 37° C., 5% CO2. • 6. 15 μL 3× DiscoveRx detection reagent was added to each well. • 7. Plates were incubated for 1 hour at room temperature (plates stored in the dark). • 8. Plates were read on Envision (PerkinElmer) luminesence plate reader and analyzed using ADA.

One may read the IC50 as the concentration at which inhibition is half-maximal.

Take `C[C@H](c1ccc(F)cc1)N1C(=O)O[C@](Cc2ccccc2)(c2nc3cc(C(F)(F)F)ccc3[nH]2)C1=O` [Compound 8, (5R)-5-Benzyl-3-[(1R)-1-(4-fluorophenyl)ethyl]-5-[5-(trifluoromethyl)-1H-benzimidazol-2-yl]-1,3-oxazolidine-2,4-dione]: the concentration for half-maximal inhibition (IC50) is under 100 nM.

Consider `C[C@H](c1ccc(F)cc1)N1C(=O)O[C@](Cc2ccccc2)(c2nc3c(Cl)cc(Cl)cc3[nH]2)C1=O` [Compound 19, (5R)-5-Benzyl-5-(4,6-dichloro-1H-benzimidazol-2-yl)-3-[(1R)-1-(4-fluorophenyl)ethyl]-1,3-oxazolidine-2,4-dione], for which the IC50 is under 100 nM. As to `C[C@H](c1ccc(F)cc1)N1C(=O)O[C@](Cc2ccccc2)(c2nc3ccc(CN4CCOCC4)cc3[nH]2)C1=O` [Compound 10, (5R)-5-Benzyl-3-[(1R)-1-(4-fluorophenyl)ethyl]-5-[5-(morpholinylmethyl)-1H-benzimidazol-2-yl]-1,3-oxazolidine-2,4-dione], the half-inhibitory concentration (IC50) lay in the range of 100 to 500 nM. For the compound `C[C@H](c1ccc(F)cc1)N1C(=O)O[C@](Cc2ccccc2)(c2nc3c(-c4cncnc4)cccc3[nH]2)C1=O` [Compound 35, (5R)-5-Benzyl-3-[(1R)-1-(4-fluorophenyl)ethyl]-5-(4-pyrimidin-5-yl-1H-benzimidazol-2-yl)-1,3-oxazolidine-2,4-dione], the IC50 is 100 to 500 nM.

With `CC(C1CCC(F)(F)CC1)N1C(=O)O[C@](Cc2ccccc2)(c2nc3ccc(Cl)cc3[nH]2)C1=O` (stereo partly drawn) [Compound 11, (5R)-5-Benzyl-5-(6-chloro-1H-benzimidazol-2-yl)-3-[1-(4,4-difluorocyclohexyl)ethyl]-1,3-oxazolidine-2,4-dione], the IC50 was under 100 nM. As for `C[C@H](C1CCCCC1)N1C(=O)O[C@](Cc2ccc(F)cc2)(c2nc3ccc(C#N)cc3[nH]2)C1=O` [Compound 18, 2-{3-[(1R)-1-Cyclohexylethyl]-5-(4-fluorobenzyl)-2,4-dioxo-1,3-oxazolidin-5-yl}-1H-benzimidazole-5-carbonitrile], the IC50 was 100 to 500 nM.
